{"source": "patent US8759309B2", "about": "“Polynucleotides that stimulate neutrophils” (Immunom Technologies, Inc., priority 2010, dated 2014)", "test_system": "neutrophils isolated from the kidneys of fathead minnows", "assay": "Neutrophil oxidative (respiratory) burst, oxidation of DHR123 to rhodamine by flow cytometry", "format": "cell-based, Pimephales promelas", "settings": "for % of PMA (oxidative burst): PMA at 1 μg/ml = 100%, * P<0.05; for stimulation of neutrophils (qualitative): exposure of neutrophils to individual oligos and their dimer", "text": "Polynucleotides that stimulate neutrophils may be identified by exposing neutrophils isolated from the kidneys of fathead minnows to one or more polynucleotides complementary to an Initiation Site of Origin of Replication. The oxidation of the non-fluorescent dihydrorhodamine 123 (DHR123) to fluorescent rhodamine (Rh 123) may be determined indirectly by determining fluorescence intensity using spectrofluorometry in a flow cytometer. Rh 123 has an absorption maximum at 507 nm and a fluorescence maximum at 529 nm. Results of fluorescence intensity for the polynucleotide of the present invention and a control may be obtained and compared. The control serves as a reference point for measuring changes in phenotype such as fluorescence intensity. A control may include a neutrophil contacted with a known neutrophil stimulator, such as phorbol myristic acetate (PMA), and/or a neutrophil not exposed to the neutrophil stimulator or the polynucleotide of the present invention. The degree or amount of fluorescent intensity of each sample may be determined at a desired time point and the values of various samples compared. For example, a similar or an increase in the fluorescence intensity level of a sample from a neutrophil exposed to a polynucleotide of the present invention relative to the fluorescence intensity level of a sample from a neutrophil exposed to a known neutrophil stimulator would be indicative of the polynucleotide being able to stimulate neutrophils. For example, an increase in the fluorescence intensity level of a sample from a neutrophil exposed to a polynucleotide of the present invention relative to the fluorescence intensity level of a sample from a control neutrophil not exposed a known neutrophil stimulator or polynucleotide of the present invention would be indicative of the polynucleotide being able to stimulate neutrophils. Other suitable assays may be used to determine neutrophil stimulation, by measuring the uptake of oxygen or destruction of bacteria, including but not limited to. Measuring the release of specific cytokines can also be used to determine neutrophil activity. See: Scapini, P., Llapinet-Vera, J., Gasperini, S., Calzetti, F., Bazzoni, F., Cassatella, M., The Neutrophil as a Cellular Source of Cytokines; Immunol. Rev. 177, 195-203.\nKilling microbes by the action of myeloperoxidase requires oxygen. Therefore, measuring the transient increase in oxygen uptake—the respiratory burst—by neutrophils reflects their antimicrobial activity. The respiratory burst, therefore, can be used as an indicator of the extent of neutrophil stimulation.\nOligo A can dimerize with itself which may explain why it had less broad stimulating activity than die Oligo B. It was determined by spectrofluorometry in a flow cytometer which recorded the oxidation of the non-fluorescent dihydrorhodamine 123 (DHR123) to fluorescent rhodamine during exposure of neutrophils to the oligos. Results were compared to the degree of fluorescence of a known powerful neutrophil stimulator, phorbol myristic acetate (PMA).\nThe degree of stimulation by PMA at a concentration of […] represented in the accompanying graph as 100%.\nNeutrophils from fathead minnows were prepared and tested by the Institute for International Cooperation in Animal Biologics, Iowa State Univ., Ames, Iowa 50011 (See: Immunomodulatory Effects of B-glucan on Neutrophil Function in Fathead Minnows, Pimephales promelas Rafinesque, 1820, Dev. and Comp. Immunol. (2006 30; 817-830), Palić, D., et al). Oligos were prepared by Oligos, Etc., Portland, Oreg. 97298).", "note": "“And” between values parts separate entries of the source, which are not always exact repeats. Identical values can stand only once. “Also recorded” adds a separate entry of the source."}
{"compound": "5′AAUAggUgU3′ (AAUANGUGU; ribonucleotide, lower-case positions undefined, further chemistry not given here) [Oligo A, ribonucleotide complementary to the consensus core of bacterial Initiation Sites]", "values": [{"measurement": "% of PMA (oxidative burst)", "setting": "Oligo Conc. 0.03 μg/ml", "value": "11.83 % of PMA"}, {"measurement": "% of PMA (oxidative burst)", "setting": "Oligo Conc. 0.3 μg/ml", "value": "0 % of PMA"}, {"measurement": "% of PMA (oxidative burst)", "setting": "Oligo Conc. 3 μg/ml", "value": "0 % of PMA"}, {"measurement": "% of PMA (oxidative burst)", "setting": "Oligo Conc. 30 μg/ml", "value": "16.21 % of PMA"}, {"measurement": "stimulation of neutrophils (qualitative)", "value": "significant stimulation"}]}
{"compound": "5′UUAUCCACA3′ (UUAUNCACA; chemistry not fully specified) [Oligo B]", "values": [{"measurement": "neutrophil destruction", "setting": "30 μg/ml", "value": "did not indicate neutrophil destruction"}, {"measurement": "% of PMA (oxidative burst)", "setting": "Oligo Conc. 0.03 μg/ml", "value": "30 % of PMA and 29.57* % of PMA"}, {"measurement": "% of PMA (oxidative burst)", "setting": "Oligo Conc. 0.3 μg/ml", "value": "18.32* % of PMA"}, {"measurement": "% of PMA (oxidative burst)", "setting": "Oligo Conc. 3 μg/ml", "value": "33.02* % of PMA"}, {"measurement": "% of PMA (oxidative burst)", "setting": "Oligo Conc. 30 μg/ml", "value": "14.93 % of PMA"}, {"measurement": "oxidative burst compared with other oligos", "setting": "P<0.05 denoted by *", "value": "significantly higher than Oligo A at all tested concentrations; also recorded: significantly higher than mixtures of Oligos A and B at most concentrations"}, {"measurement": "stimulation of neutrophils (qualitative)", "value": "significant stimulation"}]}
{"compound": "CCCCCCCCCCCCCC(=O)O[C@@H]1[C@@H](C)[C@@]2(O)[C@@H](C=C(CO)C[C@]3(O)C(=O)C(C)=C[C@@H]23)[C@@H]2C(C)(C)[C@]12OC(C)=O", "note": "[PMA, phorbol myristic acetate, reference compound]", "values": [{"measurement": "degree of stimulation (reference)", "setting": "PMA at 1 μg/, set as 100%", "value": 100, "unit": "%"}]}
